Legend:
[1] = system: Streptococcus pyogenes; assay: Antibiotic disc diffusion (NCCLS); assay type: cell-based; settings: disc diffusion (FIGS. 21, 22 penicillin V; FIG. 27 methicillin)
Procedure: (§1) Antibiotic testing was carried out using disc diffusion and tube dilution methods following NCCLS (National Committee for Clinical Laboratory Standards) methodology with several strains of bacteria.
(§2) Antibiotic testing was carried using disc diffusion and tube dilution methods following NCCLS (National Committee for Clinical Laboratory Standards) methodology.

[2] = system: Streptococcus faecalis; assay: Antibiotic disc diffusion (NCCLS); assay type: cell-based; settings: disc diffusion (FIGS. 21, 22 penicillin V; FIG. 27 methicillin)
Procedure: as §1, §2

[3] = system: Staphylococcus aureus; assay: Antibiotic disc diffusion (NCCLS); assay type: cell-based; settings: disc diffusion (FIG. 19, 29 ceftazidime; FIGS. 21, 22 penicillin V; FIG. 27 methicillin)
Procedure: as §1, §2

[4] = system: Staphylococcus aureus (ATCC 25923) or Streptococcus faecalis (ATCC 29212); assay: Penicillin V zonal inhibition on Mueller-Hinton agar plates; assay type: cell-based; settings: disks with 0.1 ml of 1 mg/ml solution, 24 hours at 37° C. (FIG. 23)
Procedure: Penicillin V. or deuterated penicillin V disks were prepared by allowing 0.1 ml of a 1 mg/ml solution of the respective drugs to absorb into filter paper disks. After drying the disks were placed onto Mueller-Hinton agar plates seeded with either Staphylococcus aureus (ATCC 25923) or Streptococcus faecalis (ATCC 29212). The resulting plates were incubated for 24 hours at 37° C. and zones of inhibition around the disks were measured. Results are graphically depicted in FIG. 23.

[5] = system: Streptococcus pyogenes; assay: Antibiotic tube dilution (NCCLS); assay type: cell-based; settings: tube dilution (FIG. 20 penicillin V, FIG. 26 methicillin)
Procedure: as §1, §2

[6] = system: Staphylococcus aureus; assay: Antibiotic tube dilution (NCCLS); assay type: cell-based; settings: tube dilution (FIG. 20 penicillin V, FIG. 26 methicillin)
Procedure: as §1, §2

[7] = system: S. aureus clinical isolates; assay: Penicillin V on clinical isolates; assay type: cell-based; settings: methicillin sensitive isolates (FIGS. 34 and 35)
Procedure: The effect of control and deuterated penicillin V on S. aureus clinical isolates was determined (FIGS. 34 and 35). […] The modest differences may be related to the concentrations used and density of bacterial seeding on the plates.

[8] = system: S. aureus; assay: Penicillin V dose-response study; assay type: cell-based
Procedure: A dose-response study for penicillin V using S. aureus was conducted (FIG. 30). […] These conditions used a higher inoculum (100 fold) than previous studies.
A experiment similar to that above was performed except that the dose range was larger.

[9] = system: normotensive Sprague-Dawley rats; assay: Nicardipines on blood pressure in normotensive Sprague-Dawley rats (Example VI); assay type: in vivo, rat; settings: for slope function of dose response: calculated by Litchfield-Wilcoxon method; for change in mean arterial pressure at equipotent doses: control 1×10^−9 moles, deuterated 3×10^−9 moles, p=NS; for ED16, reduction in mean arterial pressure / ED50, reduction in mean arterial pressure / ED84, reduction in mean arterial pressure: injected, anesthetized rats
From the text: Effect of deuterated control […] on blood pressure in normotensive Sprague-Dawley rats.

[10] = system: normotensive Sprague-Dawley rats; assay: Nifedipines on blood pressure in normotensive Sprague-Dawley rats (Example V); assay type: in vivo, rat; settings: for maximum change in mean arterial pressure at equipotent doses: 1 ml injected, control 2×10^−3 molar, p=NS; for maximum change in mean arterial pressure at equipotent doses / duration of action (hypotensive response): deuterated 1×10^−3 molar; for duration of action (hypotensive response): equipotent doses: control 2×10^−3 molar, p=0.02
From the text: Effect of deuterated and control nifedipines on blood pressure in normotensive Sprague-Dawley rats.

[11] = system: Streptococcus faecalis; assay: Antibiotic tube dilution (NCCLS); assay type: cell-based; settings: tube dilution (FIG. 26 methicillin)
Procedure: as §1, §2

[12] = system: Spontaneously hypertensive rats (SHR); assay: Blood pressure effect of i.v. nifedipines in anesthetized spontaneously hypertensive rats (Example II); assay type: in vivo, rat; settings: at the three lower concentrations, p=0.08 Wilcoxon rank-sum (FIG. 1)
Procedure: Spontaneously hypertensive rats (SHR) were anesthetized with pentobarbital (65 mg/kg, intraperitoneally) and a carotid artery and jugular vein cannulated. Blood pressure was continuously monitored via the carotid artery cannula. […] Aliquots of appropriate dilutions were then injected intravenously in the SHR and blood pressure effects monitored for at least two hours following injection. Doses used were 0.00001, 0.00002, 0.000025, and 0.00005 moles per rat in the control group and in the test group. All rats were within 25 grams of body weight of each other.

[13] = system: T type calcium channels in NE 115 cells; assay: Use dependency of calcium channel inhibition, whole cell patch-clamp with repetitive pulses (Example IV)
Procedure: In the following set of examples, calcium channels were depolarized with repetitive pulses of current at the intervals indicated. Such studies were carried out using the whole cell version of the patch-clamp. The reduction of inward current as a function of the interval between pulses in the absence of any drug was taken as the control.

[14] = system: S. pyogenes; assay: Effect of solvent (water or D2O) on ceftazidime activity; assay type: cell-based; settings: dissolved in D2O (FIG. 33)
Procedure: The effect of solvent on ceftazidime activity was tested to confirm that dissolving ceftazidime in D2O could alter its efficacy. We therefore dissolved control and modified ceftazidime in water of D2O and tested it effect on S. pyogenes (FIG. 33). […] Thus, our findings underscore the unique importance of isotopes.

Compound: CC1(C)S[C@@H]2[C@H](NC(=O)COc3ccccc3)C(=O)N2[C@H]1C(=O)O [deuterated penicillin V]
- zones of inhibition, modified vs control drug [1]: greater for modified (test) compared to control drug
- zones of inhibition, modified vs control drug [2]: greater for modified (test) compared to control drug
- zones of inhibition, modified vs control drug [3]: greater for modified (test) compared to control drug
- potency relative to native penicillin V in zonal inhibition [4]: increase in potency
- concentration necessary to inhibit growth, modified vs control drug [5]: substantially less compared to control drug
- concentration necessary to inhibit growth, modified vs control drug [6]: substantially less compared to control drug
- potency, modified vs control drug [7]: always more potent than the controls
- bacteriocidal activity ([8]; high dose, higher inoculum (100 fold) (FIG. 30)): began to show effect
- bacteriocidal activity ([8]; higher doses, larger dose range (FIG. 31), listed as modified penicillin V): effective at higher doses

Compound: COC(=O)C1=C(C)NC(C)=C(C(=O)OCCN(C)Cc2ccccc2)C1c1cccc([N+](=O)[O-])c1 (stereo not drawn) [control nicardipine, nicardipine, reference compound]
- slope function of dose response [9]: 416
- change in mean arterial pressure at equipotent doses [9]: −13.8 mmHg
- ED16, reduction in mean arterial pressure [9]: 6.11e-06 mmol
- ED50, reduction in mean arterial pressure [9]: 0.00254 mmol
- ED84, reduction in mean arterial pressure [9]: 1.06 mmol

Compound: [2H]C([2H])([2H])C1=C(C(=O)OC)C(c2cccc([N+](=O)[O-])c2)C(C(=O)OCCN(C)Cc2ccccc2)=C(C([2H])([2H])[2H])N1 (stereo not drawn) [deuterated nicardipine]
- duration of effect compared with control ([9]; at most time periods (FIG. 10)): greater for deuterated nicardipine compared to control nicardipine
- slope function of dose response [9]: 46
- change in mean arterial pressure at equipotent doses [9]: −13.8 mmHg
- ED16, reduction in mean arterial pressure [9]: 4.62e-05 mmol
- ED50, reduction in mean arterial pressure [9]: 0.00211 mmol
- ED84, reduction in mean arterial pressure [9]: 0.09 mmol

Compound: COC(=O)C1=C(C)NC(C)=C(C(=O)OC)C1c1ccccc1[N+](=O)[O-] [nifedipine, reference compound]
- maximum change in mean arterial pressure at equipotent doses [10]: −45.8 mmHg
- duration of action (hypotensive response) [10]: 46.5 min

Compound: [2H]c1c([2H])c(OC)c(C(=O)N([2H])C2C(=O)N3C2SC(C)(C)C3C(=O)[O-])c(OC)c1[2H].[Na+] (stereo not drawn) [modified methicillin]
- zones of inhibition, modified vs control drug [1]: less for modified compared to control drug
- zones of inhibition, modified vs control drug [2]: less for modified compared to control drug
- zones of inhibition, modified vs control drug [3]: less for modified compared to control drug
- concentration necessary to inhibit growth, modified vs control drug [5]: less for control compared to modified drug
- concentration necessary to inhibit growth, modified vs control drug [11]: less for control compared to modified drug
- concentration necessary to inhibit growth, modified vs control drug [6]: less for control compared to modified drug

Compound: [2H]C([2H])([2H])C1=C(C(=O)OC)C(c2ccccc2[N+](=O)[O-])C(C(=O)OC)=C(C([2H])([2H])[2H])N1 [deuterated nifedipine]
- maximum change in mean arterial pressure at equipotent doses [10]: −40.3 mmHg
- potency on mean arterial pressure compared with control ([10]; all doses, six rats per dose, p<0.05 (FIG. 6)): more potent than control nifedipine
- duration of effect compared with control ([10]; at each time period): greater for deuterated nifedipine compared to control nifedipine
- duration of action (hypotensive response) [10]: 62.2 min
- hypotensive effect compared with regular nifedipine [12]: greater than that of regular nifedipine
- calcium current inhibition as a function of pulse frequency ([13]; 1 and 0.3 second intervals, 5 micromolar (FIG. 4)): more effective than control nifedipine in blocking the calcium channels
- decrease of inward current at increased stimulation frequency ([13]; 5 micromolar, FIG. 2 panel C): more effective than control nifedipine
- use dependent calcium channel inhibition ([13]; all frequencies, 5 micromolar (FIG. 5)): greater use dependent calcium channel inhibition
- inhibitory effect on inward calcium current ([13]; repetitive 1 second pulses, 5 micromolar, p<0.05 (FIG. 3)): more effective at blocking calcium current than control current

Compound: CC(C)(O/N=C(\C(=O)N[C@@H]1C(=O)N2C(C(=O)[O-])=C(C[n+]3ccccc3)CS[C@H]12)c1csc(N)n1)C(=O)O [control ceftazidime, ceftazidime]
- activity when dissolved in D2O [14]: enhance activity

Compound: CC1(C)S[C@@H]2[C@H](NC(=O)COc3ccccc3)C(=O)N2[C@H]1C(=O)O [control penicillin V, penicillin V, reference compound]
- bacteriocidal activity ([8]; higher doses, larger dose range (FIG. 31)): ineffective

Reference: patent publication US6818200B2, “Method of using deuterated calcium channel blockers” (priority 1994, dated 2004)
